Counter-ions that a name gives are not always drawn.

The test system of series [1] is Ctrl and APP/PS1 (AD) mice. The experiment in a line: Marble burying (MB). Format: in vivo. The settings on record: for percentage of marbles buried: 2-month-old female AD mice. How it is done: The MB assay was conducted in a clean cage (10.5 in×5.5 in) containing soft pliable Beta Chip bedding (Northeastern Products Corp, Warrensburg, NY). The cage contained 16 marbles set up in 4 rows of 4 across. Mice were given 20 minutes to explore and bury. At the end of the assay, the percentage of marbles buried was calculated.

Series [2] has as its system Ctrl and APP/PS1 (AD) mice. The series can be described thus: Contextual fear conditioning (CFC), 3-shock. It counts as in vivo. The note with it: for memory retrieval: 2-month-old male AD mice; for learning (freezing during training): male AD mice. Here is the method: A 3-shock CFC paradigm was administered as previously described (Denny et al., 2014; Drew et al., 2010). Fear conditioning was conducted in chambers obtained from Coulborn Instruments (Allentown, PA) with internal dimensions of approximately 20 cm wide×16 cm deep×20.5 cm high. The chambers had metal walls on each side, clear plastic front and back walls and ceilings, and stainless-steel bars on the floor. A house light (CM1820 bulb, 28 V, 100 mA) mounted directly above the chamber provided illumination. Each chamber was located inside a larger, insulated, plastic cabinet that provided protection from outside light and noise. Each cabinet contained a ventilation fan that was operated during the sessions. A paper towel dabbed with lemon solution was placed underneath the chamber floor. Mice were held outside the experimental room in their home cages prior to testing and transported to the conditioning apparatus individually in standard mouse cages. Chambers were cleaned with 70% EtOH between each set of mice. Training sessions were conducted using a 3-shock protocol. Mice were placed into the conditioning chamber and received shocks at 180 s, 240 s, and 300 s (2 s duration each, 0.75 mA). Fifteen seconds after the last shock, mice were removed from the chamber. Overall, the training session lasted 317 s. […] All sessions were scored for freezing using FreezeFrame4 (Actimetrics, Wilmette, IL).

In series [3] the test system is 5xFAD mouse model of Alzheimer's disease (AD). The note with it: Giannoni et al., 2013; cited from earlier work.
Series [4] has as its system Ctrl and APP/PS1 (AD) mice. The settings on record: male Ctrl mice; single injection; compared to Ctrl mice.
Protocol: The APP/PS1 (AD) mice were previously bred with the ArcCreER^T2×enhanced yellow fluorescent protein (EYFP) mice (Denny et al., 2014; Perusini et al., 2017). Female and male mice were used in all experiments. The Ctrl mice were APP/PS1 (−)×ArcCreER^T2 (+) or (−)×EYFP (+/−), and the AD mice were APP/PS1 (+)×ArcCreER^T2 (+) or (−)×EYFP (+/−). Mice were housed 4-5 per cage in a 12-h (06:00-18:00) light-dark colony room at 22° C. Mice had ad libitum access to food and water.
All drugs were resuspended in saline and made fresh for each experiment. […] These dosages were chosen based upon previous studies (Brachman et al., 2016; Chen et al., 2020a). […] All drugs were prepared in physiological saline and administered intraperitoneally (i.p.) in volumes of 0.1 cc per 10 mg body weight.
Testing was performed as previously described (Brachman et al., 2016; Chen et al., 2020a). Briefly, the testing apparatus consisted of a plastic box (50×50×20 cm). The floor was covered with approximately 2 cm of wooden bedding and the arena was brightly lit (approximately 1000 lux). […] The latency of the mice to begin eating was recorded. Immediately after the latency was recorded, the food pellet was removed from the arena. The mice were then placed into their home cage and the amount of food consumed in 5 min was measured (home cage consumption), followed by an assessment of post-restriction weight. […]
For series [5] the following is noted: mouse, in vivo.
Series [6] concerns the target hERG (human Ether-a-go-go Related Gene) channels (Homo sapiens, UniProt Q12809). The settings on record: cited from earlier work.

Sequence of hERG (human Ether-a-go-go Related Gene) channels (Q12809 whole entry): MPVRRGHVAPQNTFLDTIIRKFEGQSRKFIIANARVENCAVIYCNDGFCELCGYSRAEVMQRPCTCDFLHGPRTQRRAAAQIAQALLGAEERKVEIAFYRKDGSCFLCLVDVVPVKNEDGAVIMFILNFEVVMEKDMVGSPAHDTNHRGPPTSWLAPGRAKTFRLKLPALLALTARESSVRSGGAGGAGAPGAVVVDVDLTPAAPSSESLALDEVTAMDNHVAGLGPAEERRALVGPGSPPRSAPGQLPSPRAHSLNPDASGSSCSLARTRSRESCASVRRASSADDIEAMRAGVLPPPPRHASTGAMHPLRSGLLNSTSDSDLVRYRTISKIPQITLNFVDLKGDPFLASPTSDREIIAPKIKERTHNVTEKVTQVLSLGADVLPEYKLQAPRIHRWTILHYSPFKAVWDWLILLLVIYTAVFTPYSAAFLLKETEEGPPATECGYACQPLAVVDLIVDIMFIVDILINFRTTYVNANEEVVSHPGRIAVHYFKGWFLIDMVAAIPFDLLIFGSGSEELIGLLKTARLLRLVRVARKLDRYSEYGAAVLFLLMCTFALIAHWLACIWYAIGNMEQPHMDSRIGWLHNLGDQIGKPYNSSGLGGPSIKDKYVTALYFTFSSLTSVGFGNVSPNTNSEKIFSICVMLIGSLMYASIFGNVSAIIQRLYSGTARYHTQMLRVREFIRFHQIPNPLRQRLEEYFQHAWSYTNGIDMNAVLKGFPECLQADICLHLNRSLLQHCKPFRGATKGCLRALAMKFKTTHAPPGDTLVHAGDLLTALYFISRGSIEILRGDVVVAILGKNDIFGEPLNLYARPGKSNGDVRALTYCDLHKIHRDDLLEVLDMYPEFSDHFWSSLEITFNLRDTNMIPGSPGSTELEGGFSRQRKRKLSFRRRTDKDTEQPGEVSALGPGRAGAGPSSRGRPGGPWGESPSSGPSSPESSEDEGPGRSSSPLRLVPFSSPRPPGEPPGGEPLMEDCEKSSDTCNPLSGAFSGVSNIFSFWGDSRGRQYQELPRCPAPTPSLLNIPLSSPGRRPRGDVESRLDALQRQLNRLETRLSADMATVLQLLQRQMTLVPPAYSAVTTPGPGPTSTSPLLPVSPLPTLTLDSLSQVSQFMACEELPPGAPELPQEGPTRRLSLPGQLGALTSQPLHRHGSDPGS

Take `CNC1(c2ccccc2Cl)CCCCC1=O` (racemic) [(R,S)-ketamine, (RS)-2-(2-chlorophenyl)-2-(methylamino)cyclohexanone]: the “perseverative behavior (number of marbles buried)” value in series [1] (female Ctrl mice, prophylactic administration, FIG. 3) is given as “decreased”. Moreover, in series [2] (1×(R,S)-ketamine 30 mg/kg), the memory retrieval entry is on record as “improved”. Moreover, the “learning (freezing during training)” value in series [2] (single injection) is “Neither (R,S)-ketamine nor prucalopride, whether administered solely or jointly, affected learning”. The freezing during training result in series [2] (male Ctrl mice, single injection, compared to other groups) is listed as “increased”.
For `CCCCN1CCC(CCC(=O)c2cc(Cl)c(N)cc2OC)CC1.Cl` [RS-67,333, 1-(4-amino-5-chloro-2-methoxyphenyl)-3-[1(n-butyl)-4-piperidinyl]-1-propanone HCl], in series [3], the behavioral deficits entry was “effective in improving”; the “hippocampal astrogliosis and microgliosis” value was “decreasing”; the “number of amyloid plaques and level of amyloid beta (Aβ) species” value is listed as “decreasing”.
On to `COCCCN1CCC(NC(=O)c2cc(Cl)c(N)c3c2OCC3)CC1` [prucalopride, 4-amino-5-chloro-2,3-dihydro-N-[1-3-methoxypropyl)-4-piperidinyl]-7-benzofuran carboxamide monohydrochloride], for which the “latency to feed in home cage” value in series [4] is given as “more quickly”. Moreover, the “percentage of marbles buried” value in series [1] (7×prucalopride 1.5 mg/kg) and in series [1] (7×prucalopride 3 mg/kg) was “decreased” each time. The memory retrieval result in series [2] (7×prucalopride 3 mg/kg) was “improved”. Moreover, in series [2] (single injection), the “learning (freezing during training)” value is listed as “Neither (R,S)-ketamine nor prucalopride, whether administered solely or jointly, affected learning”. Moreover, in series [5], the “weight and weight loss” value is listed as “neither weight nor weight loss was impacted”. Moreover, the “affinity for the hERG channels” value in series [6] was “no affinity”.

The values above are taken from patent publication US20250213564A1, “COMPOSITIONS AND METHODS FOR THE TREATMENT OF ALZHEIMER'S DISEASE AND OTHER NEUROGENERATIVE DISEASE” (priority 2022, published 2025).
